Data from US20240400584A1, “COMPOUNDS AND METHODS FOR MODULATING SPLICING” (REMIX THERAPEUTICS INC., priority 2021, published 2024).

Tests used:
HTT [1] = assay: Gene panel canonical junction qPCR assay, HTT CJ mRNA (Table 7); assay type: cell-based, human; settings: Homo sapiens, read-out: HTT CJ mRNA decrease IC50
Procedure: (§1) Compounds described herein were used to modulate RNA transcript abundance in cells. The expression of a target mRNA was measured by detecting the formation of an exon-exon junction in the canonical transcript (CJ). A compound mediated exon-inclusion event was detected by observing an increase in formation OF A new junction with an alternative exon (AJ). Real-time qPCR assays were used to detect these splicing switches and interrogate the potency of various compounds towards different target Genes. A high-throughput real time quantitative PCR (RT-qPCR) assay was developed to measure these two isoforms of the mRNA (CJ and AJ) for exemplary genes, such as HTT, SMN2, and MYB, together with a control housekeeping gene, GAPDH or GUSB or PPIA, used for normalization. Briefly, the A673 or K562 cell line was treated with various compounds described herein (e.g., compounds of Formula (i)). After treatment, the levels of the HTT, MYB, or SMN2 mRNA targets were determined from each sample of cell lysate by cDNA synthesis followed by qPCR.
(§2) The data analysis was performed by first determining the ΔCt vs the housekeeper gene. This ΔCt was then normalized against the DMSO control (ΔΔCt) and converted to RQ (relative quantification) using the 2^(−ΔΔCt) equation. The RQ were then converted to a percentage response by arbitrarily setting an assay window of 3.5 and 4.0 ΔCt for HTT-CJ and MYB-CJ respectively and an assay window of 9 and 3 ΔCt for HTT-AJ and MYB-AJ in 96 well format (50,000 K562 cells/well and 15,000 A673 cells per well) and an assay window of 3 and 4 ΔCt for HTT-CJ and MYB-CJ respectively and an assay window of 5 and 3 ΔCt for HTT-AJ and MYB-AJ respectively in 384 well format (8,000 K562 cells/well example). […] The percentage response was then fitted to the 4 parametric logistic equation to evaluate the concentration dependence of compound treatment. The increase in AJ mRNA is reported as AC50 (compound concentration having 50% response in AJ increase) while the decrease in CJ mRNA levels is reported as IC50 (compound concentration having 50% response in CJ decrease).
(§3) Additional studies were carried out for a larger panel of genes using the protocol provided above. The junction between flanking upstream and downstream exons was used to design canonical junction qPCR assays. At least one of the forward primer, reverse primer or the CY5-labeled 5′ nuclease probe (with 3′ quencher such as ZEN/Iowa Black FQ) was designed to overlap with the exon junction to capture the CJ mRNA transcript. BLAST was used to confirm the specificity of the probeset and parameters such as melting temperature, GC content, amplicon size, and primer dimer formation are considered during their design. Data for the decrease in CJ mRNA levels for four exemplary genes (HTT, SMN2, MYB, and Target C) analyzed in this panel are reported as IC50 (compound concentration having 50% response in CJ decrease).

Target C = assay: Gene panel canonical junction qPCR assay, Target C CJ mRNA (Table 7); assay type: cell-based, human; settings: Homo sapiens, read-out: Target C CJ mRNA decrease IC50
Procedure: as §1, §2, §3

HTT [2] = assay: RT-qPCR splicing assay, HTT AJ/CJ mRNA; assay type: cell-based, human; settings: Homo sapiens, 24 h, A673 or K562 cells; for IC50: decrease in canonical junction mRNA; for AC50: increase in alternative junction mRNA
Procedure: as §1
(§4) The A673 cell line was cultured in DMEM with 10% FBS. Cells were diluted with full growth media and plated in a 96-well plate (15,000 cells in 100 ul media per well). The plate was incubated at 37° C. with 5% CO2 for 24 hours to allow cells to adhere. An 11-point 3-fold serial dilution of the compounds was made in DMSO then diluted in media in an intermediate plate. Compounds were transferred from the intermediate plate to the cell plate with the top dose at a final concentration of 10 uM in the well. Final DMSO concentration was kept at or below 0.25%. The cell plate was returned to the incubator at 37° C. with 5% CO2 for an additional 24 hours.
(§5) The K562 cell line was cultured in IMDM with 10% FBS. For K562, cells were diluted with full growth media and plated in either a 96-well plate (50,000 cells in 50 uL media per well) or a 384-well plate (8,000-40,000 cells in 45 uL media per well). An 11-point 3-fold serial dilution of the compounds were made in DMSO then diluted in media in an intermediate plate. Compound was transferred from the intermediate plate to the cell plate with the top dose at a final concentration of 10 uM in the well. Final DMSO concentration was kept at or below 0.25%. Final volume was 100 uL for 96-well plate and 50 uL for 384-well plate. The cell plate was then placed in an incubator at 37° C. with 5% CO2 for 24 hours.
(§6) The cells were then gently washed with 50 uL-100 uL Cold Pbs before proceeding to addition of lysis buffer. 30 uL-50 μL of room temperature lysis buffer with DNAse I (and optionally RNAsin) was added to each well. Cells were shaken/mixed thoroughly at room temperature for 5-10 minutes for lysis to take place and then 3 uL-5 μL of room temperature stop solution was added and wells were shaken/mixed again. After 2-5 minutes, the cell lysate plate was transferred to ice for RT-qPCR reaction setup. The lysates could also be frozen at −80° C. for later use.
(§7) In some cases, a direct lysis buffer was used. an appropriate volume of 3× lysis buffer (10 mM tRis, 150 mM NaCl, 1.5%-2.5% Igepal and 0.1-1 U/uL RNAsin, pH 7.4) was directly added to either K562 or A673 cells in media and mixed by pipetting 3 times. The plates were then incubated at room temperature with shaking/rocking for 20-50 minutes to allow for lysis to take place. After this time, the cell lysate plate was transferred to ice to set up for the RT-qPCR reactions. The lysates could also be frozen at −80° C. for later use.
(§8) To set up 10 uL RT-QpcR reactions, cell lysates were transferred to 384-well qPCR plates containing the master mix according to the table below. The plates were sealed, gently vortexed, and spun down before the run. The volumes were adjusted accordingly in some instances where the reaction was carried in 20 µL. The table below summarizes the components of the RT-qPCR reactions:
(§9) The RT-qPCR reaction was performed using a QuantStudio (ThermoFisher) under the following fast cycling conditions. […]

SMN2 = assay: Gene panel canonical junction qPCR assay, SMN2 CJ mRNA (Table 7); assay type: cell-based; settings: Homo sapiens, read-out: SMN2 CJ mRNA decrease IC50
Procedure: as §1, §2, §3

MYB [3] = assay: Gene panel canonical junction qPCR assay, MYB CJ mRNA (Table 7); assay type: cell-based; settings: Homo sapiens, read-out: MYB CJ mRNA decrease IC50
Procedure: as §1, §2, §3

MYB [4] = assay: RT-qPCR splicing assay, MYB AJ/CJ mRNA; assay type: cell-based; settings: Homo sapiens, A673 or K562 cells, 24 hours; for IC50: decrease in canonical junction mRNA; for AC50: increase in alternative junction mRNA
Procedure: as §1, §4, §5, §6, §7, §8, §9

## c1cnn(-c2ccc3c(c2)COc2nc(N4CCNCC4)ccc2-3)c1 [Compound 173]
HTT [1]
  IC50: > 10 µM
Target C
  IC50: > 10 µM
HTT [2]
  IC50: > 10 µM
  AC50: > 10 µM
SMN2
  IC50: 1 to 10 µM
MYB [3]
  IC50: > 10 µM
MYB [4]
  IC50: > 10 µM
  AC50: > 10 µM

## c1cnn(-c2ccc3c(c2)COc2nc(NC4CCNCC4)ccc2-3)c1 [Compound 174]
HTT [1]
  IC50: > 10 µM
Target C
  IC50: > 10 µM
HTT [2]
  IC50: > 10 µM
  AC50: > 10 µM
SMN2
  IC50: 1 to 10 µM
MYB [3]
  IC50: > 10 µM
MYB [4]
  IC50: > 10 µM
  AC50: > 10 µM

## CN(c1ccc2c(n1)OCc1cc(-n3cccn3)ccc1-2)C1CCNCC1 [Compound 175]
HTT [1]
  IC50: > 10 µM
Target C
  IC50: > 10 µM
HTT [2]
  IC50: > 10 µM
  AC50: 1 to 10 µM
SMN2
  IC50: 1 to 10 µM
MYB [3]
  IC50: > 10 µM
MYB [4]
  IC50: > 10 µM
  AC50: > 10 µM

## [2H]C([2H])([2H])N(c1ccc2c(n1)OCc1cc(-n3cccn3)ccc1-2)C1CCNCC1 [Compound 176]
HTT [1]
  IC50: 1 to 10 µM
Target C
  IC50: > 10 µM
HTT [2]
  IC50: 1 to 10 µM
  AC50: 1 to 10 µM
SMN2
  IC50: 1 to 10 µM
MYB [3]
  IC50: > 10 µM
MYB [4]
  IC50: > 10 µM
  AC50: > 10 µM

## CCN(c1ccc2c(n1)OCc1cc(-n3cccn3)ccc1-2)C1CCNCC1 [Compound 177]
HTT [1]
  IC50: > 10 µM
Target C
  IC50: > 10 µM
HTT [2]
  IC50: > 10 µM
  AC50: > 10 µM
SMN2
  IC50: > 10 µM
MYB [3]
  IC50: > 10 µM
MYB [4]
  IC50: > 10 µM
  AC50: > 10 µM

## CN(c1ccc2c(n1)OCc1cc(-n3cccn3)ccc1-2)[C@@H]1C[C@H]2CCC[C@@H](C1)N2 [Compound 178]
HTT [1]
  IC50: < 0.1 µM
Target C
  IC50: 0.1 to 1 µM
HTT [2]
  IC50: < 0.1 µM
  AC50: < 0.1 µM
SMN2
  IC50: < 0.1 µM
MYB [3]
  IC50: 0.1 to 1 µM
MYB [4]
  IC50: 0.1 to 1 µM
  AC50: < 0.1 µM

## c1cnn(-c2ccc3c(c2)COc2nc(N[C@@H]4C[C@H]5CC[C@@H](C4)N5)ccc2-3)c1 [Compound 179]
HTT [1]
  IC50: 0.1 to 1 µM
Target C
  IC50: 0.1 to 1 µM
HTT [2]
  IC50: 0.1 to 1 µM
  AC50: 0.1 to 1 µM
SMN2
  IC50: 0.1 to 1 µM
MYB [3]
  IC50: 0.1 to 1 µM
MYB [4]
  IC50: 0.1 to 1 µM
  AC50: 0.1 to 1 µM

## CN(c1ccc2c(n1)OCc1cc(-n3cccn3)ccc1-2)[C@H]1C[C@]2(C)CC[C@](C)(C1)N2 [Compound 180]
HTT [1]
  IC50: < 0.1 µM
Target C
  IC50: 0.1 to 1 µM
HTT [2]
  IC50: < 0.1 µM
  AC50: < 0.1 µM
SMN2
  IC50: < 0.1 µM
MYB [3]
  IC50: 0.1 to 1 µM
MYB [4]
  IC50: 0.1 to 1 µM
  AC50: 0.1 to 1 µM

## c1cnn(-c2ccc3c(c2)COc2nc(N4CCCC5(CNC5)C4)ccc2-3)c1 [Compound 181]
HTT [1]
  IC50: > 10 µM
Target C
  IC50: > 10 µM
HTT [2]
  IC50: > 10 µM
  AC50: > 10 µM
SMN2
  IC50: > 10 µM
MYB [3]
  IC50: > 10 µM
MYB [4]
  IC50: > 10 µM
  AC50: > 10 µM

## c1cnn(-c2ccc3c(c2)COc2nc(N4CCC5(CCNCC5)C4)ccc2-3)c1 [Compound 182]
HTT [1]
  IC50: > 10 µM
Target C
  IC50: > 10 µM
HTT [2]
  IC50: > 10 µM
  AC50: > 10 µM
SMN2
  IC50: > 10 µM
MYB [3]
  IC50: > 10 µM
MYB [4]
  IC50: > 10 µM
  AC50: > 10 µM

## c1cnn(-c2ccc3c(c2)COc2nc(N4CCC5(CCCNC5)C4)ccc2-3)c1 (centres unmarked) [Compound 183]
HTT [1]
  IC50: > 10 µM
Target C
  IC50: > 10 µM
HTT [2]
  IC50: > 10 µM
  AC50: > 10 µM
SMN2
  IC50: 0.1 to 1 µM
MYB [3]
  IC50: 1 to 10 µM
MYB [4]
  IC50: 1 to 10 µM
  AC50: > 10 µM

## c1cnn(-c2ccc3c(c2)COc2nc(N4CCC5(CCNC5)CC4)ccc2-3)c1 [Compound 184]
HTT [1]
  IC50: 1 to 10 µM
Target C
  IC50: 1 to 10 µM
HTT [2]
  IC50: 1 to 10 µM
  AC50: 1 to 10 µM
SMN2
  IC50: 1 to 10 µM
MYB [3]
  IC50: 1 to 10 µM
MYB [4]
  IC50: 1 to 10 µM
  AC50: 1 to 10 µM

## c1cnn(-c2ccc3c(c2)COc2nc(N4C[C@H]5CNC[C@H]5C4)ccc2-3)c1 [Compound 185]
HTT [1]
  IC50: > 10 µM
Target C
  IC50: > 10 µM
HTT [2]
  IC50: > 10 µM
  AC50: > 10 µM
SMN2
  IC50: 1 to 10 µM
MYB [3]
  IC50: > 10 µM
MYB [4]
  IC50: > 10 µM
  AC50: 1 to 10 µM
